Measured values reported in US8648045B2, “VDAC1 compositions and methods of use thereof for regulating apoptosis” (Ben Gurion University of the Negev Research and Development …, priority 2005, dated 2014).

Key:
[1] = target: T1, E72Q-mVDAC1 (Mus musculus, UniProt Q60932, E72Q); test: VDAC channel recording in planar lipid bilayer (PLB); type: biochemical; settings: PLB, 0 mV to −20 mV; all ten experiments
T1 construct: made in house; host or cells: yeast (purified from mitochondria of yeast expressing mutated mVDAC1)
T1 sequence (Q60932 14-296 E72Q limits assumed): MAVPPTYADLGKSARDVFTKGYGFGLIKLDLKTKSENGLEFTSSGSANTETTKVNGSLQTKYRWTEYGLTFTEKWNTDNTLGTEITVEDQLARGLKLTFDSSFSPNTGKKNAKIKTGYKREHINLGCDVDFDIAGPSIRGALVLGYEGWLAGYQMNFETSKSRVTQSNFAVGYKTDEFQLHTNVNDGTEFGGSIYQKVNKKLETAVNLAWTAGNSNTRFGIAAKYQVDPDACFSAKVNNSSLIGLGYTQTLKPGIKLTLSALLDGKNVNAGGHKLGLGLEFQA
Procedure: (§1) Native and mutated mVDAC1 were extracted with lauryldimethylamine N-oxide (LDAO) from mitochondria isolated from yeast expressing various VDACs, and purified by chromatography on hydroxyapatite followed by carboxymethyl (CM)-cellulose where LDAO was replaced by β-OG (β-octylglucoside).
(§2) Reconstitution of purified VDAC into a planar lipid bilayer (PLB) multi-channel current recording and data analyses were carried as follows. Briefly, PLB were prepared from soybean asolactin dissolved in n-decane (50 mg/ml) in a chamber containing 10 mM HEPES/KOH pH 7.4 and 0.5 or 1M NaCl (cis/trans). Only PLBs with a resistance greater than 100 GΩ were used. Purified VDAC (about 1 ng) was added to the chamber defined as the cis side. After one or a few channels inserted into the PLB, excess protein was removed by perfusion of the cis chamber with 20 volumes of a solution (with the same composition as before perfusion), in order to prevent further protein incorporation. Currents were recorded under voltage-clamp mode using a Bilayer Clamp amplifier (Warner Instrument, USA). The currents were measured with respect to the trans side of the membrane (ground). The currents were low-pass filtered at 1 kHz, using a Bessal filter (Frequency Devices, USA) and digitized on-line using a Digidata 1200 interface board and pCLAMP 6 software (Axon Instruments). Sigma Plot 2000 scientific software was used for data analyses. Experiments were performed at 23-25° C.
(§3) FIG. 1A: Purified recombinant native or E72Q-mutated mVDAC1 was reconstituted into a PLB (planar lipid bilayer) in symmetrical solutions of 0.5 M NaCl. Currents through VDAC1 channel in response to a voltage step from zero to −20 mV were recorded before and 5 min after the addition of HK-I (28.6 mU/ml). The dashed lines indicate the zero-current level. […] FIG. 1C: Cytochrome c release was assayed, using a monoclonal anti-cytochrome c antibody, in the absence or the presence of HK-I (1 U/ml), chymotrypsin-treated HK-I (1 U/ml) or CsA (10 micro M).
(§4) RuR, known to interact with several Ca^2+ binding proteins and to inhibit Ca^2+ transport in mitochondria, inhibited channel activity of native but not of E72Q-mutated VDAC1 (FIG. 5E). Purified recombinant native and E72Q-mVDAC1 variant were reconstituted into a planar lipid bilayer (PLB) and the currents produced in response to voltages stepped from a holding potential of 0 mV to −20 mV were recorded. […] The level of inhibition calculated from […] different experiments was 89.2±2.8% (mean±SD, n=9). In contrast, the channel activity of E72Q-mVDAC1 was not inhibited by RuR in all ten experiments.

[2] = target: T2, recombinant native mVDAC1 (Mus musculus, UniProt Q60932); test: as above; type: biochemical; settings: RuR; PLB, voltage stepped 0 mV to −20 mV; mean±SD, n=9
T2 construct: made in house; host or cells: yeast (purified from mitochondria of yeast expressing mVDAC1)
T2 sequence (Q60932 14-296 limits assumed): as the sequence (Q60932 14-296 E72Q limits assumed) above, with Q59E counted along it
Procedure: as §1, §2, §3, §4

[3] = system: U937 cells; test: Apoptotic cell death of U937 cells transfected with native or mutated mVDAC1, with/without RuR (acridine orange/ethidium bromide staining); type: cell-based, human
Procedure: Logarithmically-growing U937 cells were resuspended in RPMI 1640 supplemented with 10% FCS, 100 U/ml penicillin and […] streptomycin at a concentration of 2.5×10^7 cells/ml. Cells were transfected to express rat or murine VDAC1 using the vectors pEGFP, pEGFP-VDAC1, pEGFP-E72Q-mVDAC1, pE-mVDAC1 or pE-E72Q-mVDAC1. Transfection of the U937 cells was performed by electroporation with a single pulse from a Bio-Rad micropulser II with a capacitance extender unit (200 V, […]). Cells were incubated on ice for 10 min before and after transfection, and then resuspended in 20 ml of RPMI 1640 supplemented with 10% FCS, 1 mM l-glutamine, 100 U/ml penicillin and […] streptomycin. […] GFP-positive cells were viewed under a microscope using a blue filter.
Cells were plated at a density of 5.4×10^4 cells/cm^2 in 24-well plates, washed once with PBS and placed in serum-free medium. Cells were then incubated with or without RuR or Ru360. Cells were also treated with […] staurosporine (STS) to induce apoptosis and analyzed for viability 3, 5 and 7 hrs after STS addition. Treatments with curcumin (120 μM) or As2O3 (20 μM) were carried out for 48 hrs.
Fifty six (56) hr after transfection, cells were exposed for 20 hr to RuR (1 μM) and cell viability was analyzed using acridine orange/ethidium bromide staining. In each independent experiment, approximately 250 cells were counted for each including early and late apoptotic cells. Data shown in FIG. 5 and Table 2 are the mean±SEM (n=3).

[4] = system: permeability transition pore (PTP); test: PTP opening monitored by Ca2+ accumulation and mitochondrial swelling; type: biochemical, rat; settings: LP1 0.1 mM or 0.3 mM; brain HK-I 0.25 U/ml pre-incubated 10 min with LP1
Procedure: Ca^2+ uptake by freshly prepared rat liver mitochondria (0.5 mg/ml) was assayed for 1 to 20 minutes at 30° C. in the presence of 225 mM mannitol, 75 mM sucrose, 120 μM CaCl2 (containing 3×10^4 cpm/nmol [^45Ca^2+]), 5 mM HEPES/KOH, 5 mM succinate and 0.1 mM Pi, pH 7.0. Uptake of ^45Ca^2+ was terminated by rapid Millipore filtration followed by a wash with 5 ml of 150 mM KCl.
Ca^2+-induced mitochondria large amplitude swelling was assayed in freshly-prepared mitochondria under the same conditions as for Ca^2+ accumulation, except that the temperature was 24° C. Cyclosporine A (CsA)-sensitive mitochondrial swelling was initiated upon addition of Ca^2+ (0.2 mM) to the sample. Absorbance changes at 520 nm were monitored every 15-20 sec with an Ultraspec 2100 spectrophotometer.
The failure of non-binding species of HK, such as yeast HK, or trypsin- or chymotrypsin-treated HK-I (FIG. 2D) to prevent PTP opening, confirmed the specificity of the HK-I effect, and of the requirement of the HK-I N-terminal region for its interaction with VDAC.
Mitochondrial swelling was assayed in the absence (control ●) or the presence of HK-I (gray ●) and in presence HK-I pre-incubated with peptide LP1. Mitochondrial swelling was assayed as in FIG. 2 in the absence and the presence of peptide LP1 (0.1 mM or 0.3 mM), brain HK-I (0.25 U/ml) or with HK-I pre-incubated for 10 min with LP1. […]

[5] = target: T3, mitochondrial bound HK-I (Rattus norvegicus, UniProt P05708); test: Detachment of mitochondria-bound HK-I; type: biochemical; settings: rat brain mitochondria; HK-I activity in the supernatant
T3 construct: from tissue; host or cells: rat brain mitochondria
T3 sequence (P05708 1-918): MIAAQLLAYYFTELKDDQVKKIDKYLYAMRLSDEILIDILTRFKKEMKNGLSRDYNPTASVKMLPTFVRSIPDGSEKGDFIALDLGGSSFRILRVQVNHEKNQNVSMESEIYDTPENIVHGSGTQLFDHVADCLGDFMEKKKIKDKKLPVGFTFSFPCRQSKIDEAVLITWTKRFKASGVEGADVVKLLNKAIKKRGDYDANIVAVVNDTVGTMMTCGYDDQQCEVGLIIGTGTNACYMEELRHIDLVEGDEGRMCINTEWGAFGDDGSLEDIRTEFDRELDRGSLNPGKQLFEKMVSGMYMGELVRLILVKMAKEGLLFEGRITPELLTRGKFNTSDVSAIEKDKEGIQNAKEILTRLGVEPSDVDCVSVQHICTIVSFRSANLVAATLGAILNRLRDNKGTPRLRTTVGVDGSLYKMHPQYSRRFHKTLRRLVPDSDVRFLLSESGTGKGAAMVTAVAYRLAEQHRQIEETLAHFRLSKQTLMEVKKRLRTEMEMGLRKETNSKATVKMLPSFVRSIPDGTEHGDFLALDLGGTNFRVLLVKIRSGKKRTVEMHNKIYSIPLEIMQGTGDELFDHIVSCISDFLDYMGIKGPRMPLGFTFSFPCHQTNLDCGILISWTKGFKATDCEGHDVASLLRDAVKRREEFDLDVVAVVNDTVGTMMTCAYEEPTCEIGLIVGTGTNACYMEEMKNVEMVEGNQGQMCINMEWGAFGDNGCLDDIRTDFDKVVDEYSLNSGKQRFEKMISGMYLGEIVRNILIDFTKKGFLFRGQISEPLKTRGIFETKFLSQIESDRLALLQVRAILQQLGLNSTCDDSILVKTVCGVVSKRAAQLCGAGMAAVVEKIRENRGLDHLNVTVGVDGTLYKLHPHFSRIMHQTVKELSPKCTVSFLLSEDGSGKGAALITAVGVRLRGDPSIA

Row | Compound | inhibition of channel activity by RuR [1] | level of inhibition of channel activity [2] [%] | Apoptotic cells, % +RuR ([3]; Control (non-transfected) U937 cells, RuR 1 μM) [%] | effect on apoptotic death in control or plasmid-transfected cells ([3]; RuR) | protective effect of RuR on VDAC1 over-expression-induced cell death ([3]; cells expressing E72Q-mVDAC1, E72Q-mVDAC1-GFP or E65Q-mVDAC1) | increase in the total level of VDAC1 protein ([3]; cells expressing native mVDAC1 exposed to RuR) | protection against apoptotic cell death ([3]; cells over-expressing VDAC1 or VDAC1-GFP, 1 μM RuR for 18 hr or 5 μM RuR for 5 hr) | effect on HK-I prevention of PTP opening [4] | detachment of mitochondria-bound HK-I [5]
1 | N.N.N.N.N.N.N.N.N.N.N.N.N.N.[Cl-].[Cl-].[Cl-].[Cl-].[Cl-].[Cl-].[O-2].[O-2].[Ru+3].[Ru+3].[Ru+4] [RuR, ruthenium red] | not inhibited | 89.2±2.8 | 9.1 ± 2.1 | had no effect or even slightly increased apoptotic death | not observed | over 5 fold | 64-72% |  | 
2 | WTEYGLTFTEKWNTD [Peptide LP1, 15 amino acid peptide derived from the first cytosolic β-loop of VDAC1, amino acids 63-78] |  |  |  |  |  |  |  | eliminates the HK-I prevention of PTP opening | able to release mitochondrial bound HK-I
